From patent US10391106B2, “19-nor C3, 3-disubstituted C21-C-bound heteroaryl steroids and methods of use thereof” (Sage Therapeutics, Inc., priority 2013, dated 2019)

What was measured:
[1] = target: GABAA-R (rat brain cortical membranes); experiment: Steroid inhibition of [35S]-TBPS binding (radioligand displacement); conditions: in the presence of 5 μM GABA
Method: Steroid Inhibition of TBPS Binding
[35S]-t-Butylbicyclophosphorothionate (TBPS) binding assays using rat brain cortical membranes in the presence of 5 μM GABA has been described (Gee et al, J. Pharmacol. Exp. Ther. 1987, 241, 346-353; Hawkinson et al, Mol. Pharmacol. 1994, 46, 977-985; Lewin, A. H et al., Mol. Pharmacol. 1989, 35, 189-194).
Briefly, cortices are rapidly removed following decapitation of carbon dioxide-anesthetized Sprague-Dawley rats (200-250 g). The cortices are homogenized in 10 volumes of ice-cold 0.32 M sucrose using a glass/teflon homogenizer and centrifuged at 1500×g for 10 min at 4° C. The resultant supernatants are centrifuged at 10,000×g for 20 min at 4° C. to obtain the P2 pellets. The P2 pellets are resuspended in 200 mM NaCl/50 mM Na-K phosphate pH 7.4 buffer and centrifuged at 10,000×g for 10 min at 4° C. This washing procedure is repeated twice and the pellets are resuspended in 10 volumes of buffer. Aliquots (100 μL) of the membrane suspensions are incubated with 3 nM [^35S]-TBPS and 5 μL aliquots of test drug dissolved in dimethyl sulfoxide (DMSO) (final 0.5%) in the presence of 5 μM GABA. The incubation is brought to a final volume of 1.0 mL with buffer. […] Following a 90 min incubation at room temp, the assays are terminated by filtration through glass fiber filters (Schleicher and Schuell No. 32) using a cell harvester (Brandel) and rinsed three times with ice-cold buffer. Filter bound radioactivity is measured by liquid scintillation spectrometry. Non-linear curve fitting of the overall data for each drug averaged for each concentration is done using Prism (GraphPad). […] The concentration of test compound producing 50% inhibition (IC50) of specific binding and the maximal extent of inhibition (Imax) are determined for the individual experiments with the same model used for the overall data and then the means ±SEM.s of the individual experiments are calculated.
Various compounds are or can be screened to determine their potential as modulators of [^35S]-TBPS binding in vitro. These assays are or can be performed in accordance with the above discussed procedures.

[2] = target: T1, GABAA receptor α1β2γ2 (Homo sapiens, UniProt P14867+P47870); experiment: Patch clamp electrophysiology, Qpatch in Ltk cells; assay type: cell-based; conditions: 10 μM test article, potentiation of GABA EC20 (2 μM) current, read-out: GABA (α1β2γ2) Qpatch in Ltk, % efficacy at 10 μM
T1 construct: expressed in transfected cells; host or cells: LTK cells (stably transfected)
Method: (§1) Patch Clamp Electrophysiology of Recombinant α1β2γ2 and α4β3δ GABAA Receptors
(§2) Cellular electrophysiology is used to measure the pharmacological properties of our GABAA receptor modulators in heterologous cell systems. Each compound is tested for its ability to affect GABA mediated currents at a submaximal agonist dose (GABA EC20=2 μM). LTK cells are stably transfected with the α1β2γ2 subunits of the GABA receptor and CHO cells are transiently transfected with the α4β3δ subunits via the Lipofecatamine method. Cells were passaged at a confluence of about 50-80% and then seeded onto 35 mm sterile culture dishes containing 2 ml culture complete medium without antibiotics or antimycotics. Confluent clusters of cells are electrically coupled (Pritchett et al, Science, 1988, 242, 1306-1308.). Because responses in distant cells are not adequately voltage clamped and because of uncertainties about the extent of coupling (Verdoorn et al., Neuron 1990, 4, 919-928.), cells were cultivated at a density that enables the recording of single cells (without visible connections to other cells).
Whole cell currents were measured with HEKA EPC-10 amplifiers using PatchMaster software or by using the high throughput QPatch platform (Sophion). Bath solution for all experiments contained (in mM): NaCl 137 mM, KCl 4 mM, CaCl2 1.8 mM, MgCl2 1 mM, HEPES 10 mM, D-Glucose 10 mM, pH (NaOH) 7.4.. In some cases 0.005% cremophor was also added. Intracellular (pipette) solution contained: KCl 130 mM, MgCl2 1 mM, Mg-ATP 5 mM, HEPES 10 mM, EGTA 5 mM, pH 7.2. During experiments, cells and solutions were maintained at room temperature (19° C.-30° C.). For manual patch clamp recordings, cell culture dishes were placed on the dish holder of the microscope and continuously perfused (1 ml/min) with bath solution. After formation of a Gigaohm seal between the patch electrodes and the cell (pipette resistance range: 2.5 MΩ-6.0 MΩ; seal resistance range:>1 GΩ) the cell membrane across the pipette tip was ruptured to assure electrical access to the cell interior (whole-cell patch-configuration). For experiments using the QPatch system, cells were transferred as suspension to the QPatch system in the bath solution and automated whole cell recordings were performed.
Cells were voltage clamped at a holding potential of −80 mV. For the analysis of test articles, GABA receptors were stimulated by 2 μM GABA after sequential pre-incubation of increasing concentrations of the test article. Pre-incubation duration was 30 s and the duration of the GABA stimulus was 2 s. Test articles were dissolved in DMSO to form stock solutions (10 mM). Test articles were diluted to 0.01, 0.1, 1, and 10 μM in bath solution. All concentrations of test articles were tested on each cell. The relative percentage potentiation was defined as the peak amplitude in response to GABA EC20 in the presence of the test article divided by the peak amplitude in response to GABA EC20 alone, multiplied by 100.

[3] = target: T2, GABAA receptor α4β3δ (Homo sapiens, UniProt P28472+P48169); experiment: Patch clamp electrophysiology, manual patch in CHO cells; assay type: cell-based; conditions: 10 μM test article, potentiation of GABA EC20 (2 μM) current, read-out: GABA (α4β3δ) Manual patch in CHO, % efficacy at 10 μM
T2 construct: expressed in transfected cells; host or cells: CHO cells (transiently transfected, Lipofectamine)
Method: as §1, §2
Whole cell currents were measured with HEKA EPC-10 amplifiers using PatchMaster software or by using the high throughput QPatch platform (Sophion). Bath solution for all experiments contained (in mM): NaCl 137 mM, KCl 4 mM, CaCl2 1.8 mM, MgCl2 1 mM, HEPES 10 mM, D-Glucose 10 mM, pH (NaOH) 7.4.. […]

T1 sequence (P14867 28-456): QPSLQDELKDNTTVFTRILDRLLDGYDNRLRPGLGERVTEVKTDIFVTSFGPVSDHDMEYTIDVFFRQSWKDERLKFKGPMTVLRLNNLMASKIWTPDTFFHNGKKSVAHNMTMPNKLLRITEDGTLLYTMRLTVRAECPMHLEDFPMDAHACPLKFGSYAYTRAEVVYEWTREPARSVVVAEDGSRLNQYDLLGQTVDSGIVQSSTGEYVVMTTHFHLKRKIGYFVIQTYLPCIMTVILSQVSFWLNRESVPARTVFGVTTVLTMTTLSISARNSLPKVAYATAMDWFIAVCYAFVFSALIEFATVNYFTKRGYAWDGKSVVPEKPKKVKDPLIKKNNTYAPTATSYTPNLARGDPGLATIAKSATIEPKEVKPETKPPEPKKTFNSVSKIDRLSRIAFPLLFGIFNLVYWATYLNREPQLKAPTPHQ
T1 sequence (P47870 25-512 limits assumed): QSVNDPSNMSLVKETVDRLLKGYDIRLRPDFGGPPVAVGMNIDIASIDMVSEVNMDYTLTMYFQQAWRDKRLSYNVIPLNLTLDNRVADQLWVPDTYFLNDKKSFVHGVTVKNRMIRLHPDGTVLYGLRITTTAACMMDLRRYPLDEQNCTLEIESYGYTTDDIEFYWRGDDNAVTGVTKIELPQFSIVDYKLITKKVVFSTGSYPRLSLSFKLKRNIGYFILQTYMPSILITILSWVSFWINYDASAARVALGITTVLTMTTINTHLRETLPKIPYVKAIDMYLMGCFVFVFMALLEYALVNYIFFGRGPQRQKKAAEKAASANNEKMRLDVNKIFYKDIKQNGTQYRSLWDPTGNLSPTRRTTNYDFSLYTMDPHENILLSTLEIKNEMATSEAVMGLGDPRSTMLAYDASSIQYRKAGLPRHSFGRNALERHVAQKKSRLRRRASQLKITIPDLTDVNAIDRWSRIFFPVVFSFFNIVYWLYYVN
T1 sequence (P18507 40-475 partner): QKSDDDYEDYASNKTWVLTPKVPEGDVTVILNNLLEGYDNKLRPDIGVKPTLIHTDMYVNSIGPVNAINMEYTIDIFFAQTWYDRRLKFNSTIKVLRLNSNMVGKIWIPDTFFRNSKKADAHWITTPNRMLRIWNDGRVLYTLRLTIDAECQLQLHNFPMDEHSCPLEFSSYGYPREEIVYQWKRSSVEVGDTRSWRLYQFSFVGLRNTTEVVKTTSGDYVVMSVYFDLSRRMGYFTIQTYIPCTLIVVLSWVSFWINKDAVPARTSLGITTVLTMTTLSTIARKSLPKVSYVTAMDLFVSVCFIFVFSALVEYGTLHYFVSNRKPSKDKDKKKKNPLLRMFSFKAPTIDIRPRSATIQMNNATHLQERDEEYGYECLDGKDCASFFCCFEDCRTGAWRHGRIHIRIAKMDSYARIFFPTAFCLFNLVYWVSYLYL
T2 sequence (P48169 36-554): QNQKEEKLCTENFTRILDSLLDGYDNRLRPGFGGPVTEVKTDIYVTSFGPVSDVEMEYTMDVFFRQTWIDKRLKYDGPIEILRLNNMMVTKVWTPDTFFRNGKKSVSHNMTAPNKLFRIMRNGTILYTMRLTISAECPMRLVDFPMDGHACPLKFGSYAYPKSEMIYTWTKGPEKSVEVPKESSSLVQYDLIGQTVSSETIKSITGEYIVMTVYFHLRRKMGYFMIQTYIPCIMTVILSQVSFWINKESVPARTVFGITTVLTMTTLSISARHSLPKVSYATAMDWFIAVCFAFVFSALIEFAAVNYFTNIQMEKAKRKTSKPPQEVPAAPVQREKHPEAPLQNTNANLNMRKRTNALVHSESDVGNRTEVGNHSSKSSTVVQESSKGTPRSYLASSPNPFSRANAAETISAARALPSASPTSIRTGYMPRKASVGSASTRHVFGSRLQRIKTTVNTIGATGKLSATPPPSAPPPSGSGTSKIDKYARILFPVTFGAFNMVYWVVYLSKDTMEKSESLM
T2 sequence (P28472 26-473): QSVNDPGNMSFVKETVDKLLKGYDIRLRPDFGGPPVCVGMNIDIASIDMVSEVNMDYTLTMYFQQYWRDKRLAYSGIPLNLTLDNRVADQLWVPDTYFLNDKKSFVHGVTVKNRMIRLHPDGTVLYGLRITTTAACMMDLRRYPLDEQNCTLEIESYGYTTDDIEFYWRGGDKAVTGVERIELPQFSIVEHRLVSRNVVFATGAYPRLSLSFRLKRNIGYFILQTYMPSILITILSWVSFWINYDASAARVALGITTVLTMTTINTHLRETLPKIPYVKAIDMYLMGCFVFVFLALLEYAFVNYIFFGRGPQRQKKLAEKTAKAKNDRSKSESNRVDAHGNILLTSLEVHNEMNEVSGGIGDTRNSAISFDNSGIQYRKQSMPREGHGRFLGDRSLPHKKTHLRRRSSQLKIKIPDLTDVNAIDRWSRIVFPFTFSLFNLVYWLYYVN
T2 sequence (O14764 25-452 partner): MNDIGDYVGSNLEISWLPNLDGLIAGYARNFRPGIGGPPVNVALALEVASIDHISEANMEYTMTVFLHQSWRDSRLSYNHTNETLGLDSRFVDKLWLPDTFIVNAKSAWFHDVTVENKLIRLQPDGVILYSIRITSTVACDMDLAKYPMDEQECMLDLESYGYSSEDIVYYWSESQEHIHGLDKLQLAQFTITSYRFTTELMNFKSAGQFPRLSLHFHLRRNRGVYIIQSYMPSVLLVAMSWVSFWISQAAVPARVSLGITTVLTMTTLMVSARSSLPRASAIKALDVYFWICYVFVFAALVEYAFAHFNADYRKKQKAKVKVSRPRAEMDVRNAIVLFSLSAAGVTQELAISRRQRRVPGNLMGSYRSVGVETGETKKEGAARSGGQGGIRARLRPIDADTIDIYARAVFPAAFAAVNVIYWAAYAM

Structure (SMILES) | IC50 [1] [nM] | Emax at 10 µM [2] [%] | Emax at 10 µM [3] [%]
Cc1nc(CC(=O)[C@H]2CC[C@H]3[C@@H]4CC[C@@H]5C[C@](C)(O)CC[C@@H]5[C@H]4CC[C@]23C)oc1C [SA-1] | < 50 | > 500 | 10 to 100
C[C@@]1(O)CC[C@H]2[C@H](CC[C@@H]3[C@@H]2CC[C@]2(C)[C@@H](C(=O)Cc4ccccn4)CC[C@@H]32)C1 [SA-2] | < 50 | 100 to 500 | 100 to 500
Cn1ccnc1CC(=O)[C@H]1CC[C@H]2[C@@H]3CC[C@@H]4C[C@](C)(O)CC[C@@H]4[C@H]3CC[C@]12C [SA-3] | 100 to 500 | 100 to 500 | –
Cc1cccc(CC(=O)[C@H]2CC[C@H]3[C@@H]4CC[C@@H]5C[C@](C)(O)CC[C@@H]5[C@H]4CC[C@]23C)n1 [SA-4] | < 50 | 100 to 500 | –
C[C@@]1(O)CC[C@H]2[C@H](CC[C@@H]3[C@@H]2CC[C@]2(C)[C@@H](C(=O)Cc4ccccc4)CC[C@@H]32)C1 [SA-5] | < 50 | – | –
C[C@@]1(O)CC[C@H]2[C@H](CC[C@@H]3[C@@H]2CC[C@]2(C)[C@@H](C(=O)Cc4nccs4)CC[C@@H]32)C1 [SA-7] | < 50 | > 500 | –
Cc1nc(CC(=O)[C@H]2CC[C@H]3[C@@H]4CC[C@@H]5C[C@](C)(O)CC[C@@H]5[C@H]4CC[C@]23C)sc1C [SA-8] | 50 to 100 | – | –
C[C@@]1(O)CC[C@H]2[C@H](CC[C@@H]3[C@@H]2CC[C@]2(C)[C@@H](C(=O)Cc4cnccn4)CC[C@@H]32)C1 [SA-9] | – | 100 to 500 | –
C[C@@]1(O)CC[C@H]2[C@H](CC[C@@H]3[C@@H]2CC[C@]2(C)[C@@H](C(=O)Cc4cccnc4)CC[C@@H]32)C1 [SA-10] | < 50 | – | –
